Experimental data reported in patent publication US20170232031A1, “Inhibitors of Zika Virus” (Riboscience LLC, priority 2016, published 2017).
pEC50, pIC50: −log10 of the molar value. “Also recorded” adds a separate entry of the source. Read-outs that look alike come from different tables or passages of the source.

Columns and labels:
[1] = test system: Chikungunya replicon (CHIKV strain LR2006 OPY-1, GenBank EU224270); assay: Chikungunya replicon antiviral activity; type: cell-based; settings: Chikungunya virus
Excerpt: (§1) FIG. 3. Antiviral activity of I-3 against ZIKV and CHIKV replication and cell viability determined in Huh-7 cell derived CHIKV replicon cells by intracellular ATP quantification (CellTiter-Glo).
(§2) Antiviral activity of I-3 (prodrug of 4AU) against ZIKV and CHIKV replication and cell viability determined in Huh-7 cell derived CHIKV replicon cells by intracellular ATP quantification (CellTiter-Glo).

[2] = test system: HCV replicon of genotype 1b (Con1); assay: HCV replicon genotype 1b antiviral activity; type: cell-based; settings: Hepatitis C virus; replicon genotype 1b (Con1); read-out: HCV GT1b EC50
[3] = Cytotoxicity (CC50) alongside HCV GT1b replicon assay; settings: HCV GT1b (Con1) replicon cells
human RNA polymerase III = molecular target: T1, human RNA polymerase III (Homo sapiens, UniProt O14802+Q9NW08); assay: RNA polymerase III specific reporter gene assay in HeLa cells; type: cell-based; settings: 10 or 100 μM (highest soluble concentrations)
T1 construct: endogenous in cells; host or cells: HeLa

[4] = test system: ZIKV strain MR766 (Genbank LC002520); assay: Antiviral activity against ZIKV replication in cells; type: cell-based, Zika virus
Procedure: (§3) The human hepatoma cell line Huh-7, are cultured in DMEM without phenol-red (Cellgro Mediatech, Cat #10-013-CV containing 4.5 g/l glucose, L-glutamine & sodium pyruvate). The medium is further supplemented with 10% (v/v) FBS (ATLAS Cat # F-0500-A, lot#850114A) and 1% (vlv) penicillin/streptomycin (Cellgro Mediatech #30-022-CI). Cells are maintained at 37° C. in a humidified 5% CO2 atmosphere. Zika virus representative strain titers are measured on BHK-21 cells, using a standard plaque assay procedure. For the determination of EC50 of nucleoside in the antiviral assay, Huh-7 cells are plated in white 96-well plates in MEM media supplemented with 10% FBS and 1% penicillin/streptomycin. After incubation for 24 h, the cells are infected at a multiplicity of infection (MOI) of 0.5 for 2 h at 37° C. Ten three-fold dilutions of compounds are prepared in the same media supplemented with 1% DMSO. After the 2 h adsorption phase, the virus is aspirated off and diluted compound is added to four wells each. Huh-7 cells are plated as described above and exposed to the same concentration range of compounds. Untreated cells are carried along as a control. After a 3-day incubation at 37° C., the cell viability is determined using Cell-titer Glo™ reagent (Promega, Madison, Wis.) that is added to each well and incubated for 5 min. Plates are analyzed using a Thermo Luminoskan plate reader (Waltham, Mass.).

human RNA polymerase II = molecular target: T2, human RNA polymerase II (Homo sapiens, UniProt P24928+P30876); assay: RNA polymerase II specific reporter gene assay in HeLa cells; type: cell-based; settings: 10 or 100 μM (highest soluble concentrations)
T2 construct: endogenous in cells; host or cells: HeLa

[5] = Cell viability (CC50) alongside ZIKV antiviral assay, Cell-titer Glo; type: cell-based; settings: human, Huh-7 cells
Procedure: as §3

human RNA polymerase I = molecular target: T3, human RNA polymerase I (Homo sapiens, UniProt O95602+Q9H9Y6); assay: RNA polymerase I specific reporter gene assay in HeLa cells; type: cell-based; settings: 10 or 100 μM (highest soluble concentrations)
T3 construct: endogenous in cells; host or cells: HeLa

in vitro = type: cell-based; settings: human; Huh-7 cell derived CHIKV replicon cells
Excerpt: as §1, §2

ZIK-V-RLuc = assay: Renilla Luciferase (Rluc) assay, % infection of ZIK-V-RLuc; type: cell-based; settings: Zika virus, 72 h, read-out: IC50 Zika
Procedure: FIG. 1. Graph of % infection of ZIK-V-RLuc at 72 h.p.i. vs. IC50 concentration (μM) of compound I-36.
FIG. 2. Graph of % infection of ZIK-V-RLuc at 72 h.p.i. vs. IC50 concentration (μM) of compound I-37.
Single Epimers I-36 and I-37, of I-1 were tested in the Rluc assay at 72 h.p.i. for % inhibition vs. concentration of compound (FIGS. 1-2): […]

[6] = molecular target: T4, mitochondrial DNA polymerase pol γ (Homo sapiens, UniProt P54098); assay: Inhibition of mitochondrial DNA polymerase pol γ; type: biochemical; settings: comparison nucleoside triphosphates; read-out: DNA pol γ mean IC50
T4 sequence (P54098 1-1239): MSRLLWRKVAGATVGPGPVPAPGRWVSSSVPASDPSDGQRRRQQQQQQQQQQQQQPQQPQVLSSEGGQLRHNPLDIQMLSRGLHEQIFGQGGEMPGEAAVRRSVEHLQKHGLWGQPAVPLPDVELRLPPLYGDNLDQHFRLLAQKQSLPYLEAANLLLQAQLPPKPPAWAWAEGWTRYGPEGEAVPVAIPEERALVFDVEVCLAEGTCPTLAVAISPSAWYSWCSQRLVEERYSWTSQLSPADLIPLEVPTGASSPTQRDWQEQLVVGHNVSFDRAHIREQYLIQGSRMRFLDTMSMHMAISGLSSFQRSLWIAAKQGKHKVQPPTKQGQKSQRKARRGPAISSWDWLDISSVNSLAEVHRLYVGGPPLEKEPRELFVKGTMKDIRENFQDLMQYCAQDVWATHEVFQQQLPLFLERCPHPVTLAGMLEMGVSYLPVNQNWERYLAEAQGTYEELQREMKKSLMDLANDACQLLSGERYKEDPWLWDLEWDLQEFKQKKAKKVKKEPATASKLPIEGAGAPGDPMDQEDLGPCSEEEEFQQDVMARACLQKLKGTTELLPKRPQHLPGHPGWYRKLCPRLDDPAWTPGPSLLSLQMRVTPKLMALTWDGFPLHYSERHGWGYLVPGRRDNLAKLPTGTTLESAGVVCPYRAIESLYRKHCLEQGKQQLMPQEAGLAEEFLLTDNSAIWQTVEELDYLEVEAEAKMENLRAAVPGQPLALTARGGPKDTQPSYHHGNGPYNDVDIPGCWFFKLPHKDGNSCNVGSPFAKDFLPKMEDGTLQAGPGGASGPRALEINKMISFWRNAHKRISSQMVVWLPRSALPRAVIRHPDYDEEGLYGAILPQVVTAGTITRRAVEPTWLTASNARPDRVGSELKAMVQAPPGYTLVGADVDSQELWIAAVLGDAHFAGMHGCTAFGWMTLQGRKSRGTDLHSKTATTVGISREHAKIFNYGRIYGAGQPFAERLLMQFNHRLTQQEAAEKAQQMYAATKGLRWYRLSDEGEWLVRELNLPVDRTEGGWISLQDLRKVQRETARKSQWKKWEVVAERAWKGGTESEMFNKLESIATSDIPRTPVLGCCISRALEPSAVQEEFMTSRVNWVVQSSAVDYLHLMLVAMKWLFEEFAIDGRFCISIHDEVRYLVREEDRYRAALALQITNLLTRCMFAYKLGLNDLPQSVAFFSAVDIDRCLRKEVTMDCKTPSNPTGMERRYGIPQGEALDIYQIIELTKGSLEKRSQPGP

[7] = human, in vivo; cited from earlier work
[8] = 13 week, GLP; cited from earlier work
HepG2 cells = assay: Mitochondrial toxicity in HepG2 cells (COX-I / SDH-A ratio); settings: up to 11-day incubation
Excerpt: Mean values shown as individual data points; standard deviations as error bars (FIG. 4).

[9] = type: in vitro ADME, human
Procedure: The formation of 4AUTP triphosphate is determined in human cells (Huh-7 cells, PBMC), and representative mouse, rat, dog and cynomolgus monkey cells. The intracellular triphosphate concentration is determined using LC-MS/MS. In human cells, the time and concentration dependent formation of 4AUTP triphosphate is determined, as well as the half-life after removal of all extracellular prodrug by exchange of cell culture medium. Analysis of intracellular nucleoside phosphates is conducted using well-established methods.

[10] = 13 week, GLP; cited from earlier work; remark: listed apart in the source
HCV replication = settings: humans; cited from earlier work

## CCOC(=O)[C@H](C)NP(=O)(OC[C@@]1(N=[N+]=[N-])O[C@@H](n2ccc(=O)[nH]c2=O)[C@H](O)[C@@H]1O)Oc1cccc2ccccc12 (stereo partly drawn) [Compound I-3, ethyl ((((2R,3S,4R,5R)-2-azido-5-(2,4-dioxo-3,4-dihydropyrimidin-1(2H)-yl)-3,4-dihydroxytetrahydrofuran-2-yl)methoxy)(naphthalen-1-yloxy)phosphoryl)-L-alaninate]
[1]
  pEC50: 5.39
[2]
  pEC50: 6.40
[3]
  CC50: > 100 µM
Human RNA polymerase III
  inhibition of human RNA polymerase III activity (reporter gene): did not inhibit
[4]; Zika virus, ZIKV strain MR766, human Huh-7 or mouse MEF cells
  pEC50: 6.32
[4]; summary statement
  antiviral inhibition potency (EC50), in words: submicromolar
Human RNA polymerase II
  inhibition of human RNA polymerase II activity (reporter gene): did not inhibit
[5]; cytotoxicity column of the ZIKV assay, read-out: ZIKV CC50
  CC50 at 3 day: > 100 µM
[5]; summary statement, cytotoxicity in cell culture, read-out: Huh-7 cell CC50
  CC50 at 3 day: > 100 µM
Human RNA polymerase I
  inhibition of human RNA polymerase I activity (reporter gene): did not inhibit
In vitro
  CC50: > 100 µM

## C[C@H](N[P@@](=O)(OC[C@@]1(N=[N+]=[N-])O[C@@H](n2ccc(=O)[nH]c2=O)[C@H](O)[C@@H]1O)Oc1cccc2ccccc12)C(=O)OCc1ccccc1 [Compound I-36, benzyl ((R)-(((2R,3S,4R,5R)-2-azido-5-(2,4-dioxo-3,4-dihydropyrimidin-1(2H)-yl)-3,4-dihydroxytetrahydrofuran-2-yl)methoxy)(naphthalen-1-yloxy)phosphoryl)-L-alaninate]
ZIK-V-RLuc
  pIC50: 5.96

## Cc1cn([C@H]2C[C@H](N=[N+]=[N-])[C@@H](COP(=O)(O)OP(=O)(O)OP(=O)(O)O)O2)c(=O)[nH]c1=O [AZT triphosphate]
[6]
  pIC50: 5.61

## [N-]=[N+]=N[C@]1(CO)O[C@@H](n2ccc(=O)[nH]c2=O)[C@H](O)[C@@H]1O [Compound 4AU, 4′-azidouridine]
[1]
  pEC50: < 4.00
[7]
  safety in Phase 1 clinical study: safety of 4AU has already been demonstrated
[8]
  safety in chronic toxicity study, monkeys: safety of 4AU has already been demonstrated
HepG2 cells
  mitochondrial toxicity: No mitochondrial toxicity; also recorded: lack of mitochondrial toxicity
[2]
  pEC50: 3.66
[3]
  CC50: > 1000 µM
[9]
  conversion to 4AU-triphosphate (4AUTP): not efficiently converted
[10]
  safety in chronic toxicity study, rats: safety of 4AU has already been demonstrated
HCV replication
  antiviral activity against HCV replication in Phase 1 study: significant antiviral activity
In vitro
  CC50: > 1000 µM

## C[C@H](N[P@](=O)(OC[C@@]1(N=[N+]=[N-])O[C@@H](n2ccc(=O)[nH]c2=O)[C@H](O)[C@@H]1O)Oc1cccc2ccccc12)C(=O)OCc1ccccc1 [Compound I-37, benzyl ((S)-(((2R,3S,4R,5R)-2-azido-5-(2,4-dioxo-3,4-dihydropyrimidin-1(2H)-yl)-3,4-dihydroxytetrahydrofuran-2-yl)methoxy)(naphthalen-1-yloxy)phosphoryl)-L-alaninate]
ZIK-V-RLuc
  pIC50: 5.78

## Nc1ccn([C@@H]2CS[C@H](COP(=O)(O)OP(=O)(O)OP(=O)(O)O)O2)c(=O)n1 [lamivudine triphosphate]
[6]
  pIC50: 3.83
